Tests used:
[1] = system: 11-month Fischer rats; experiment: Passive avoidance task in 11-month Fischer rats (model of MCI and early dementia); type: in vivo, rat; conditions: 27 mg/kg daily
Procedure: FIG. 2. The cathepsin B modulatory compound PADK improved learning and memory in 11-month Fischer rats, a model of mild cognitive impairment (MCI) and early dementia. A classic passive avoidance task to assess memory utilized a bi-sectioned apparatus consisting of a brightly-lit compartment and a dark compartment separated by a small door. […] In this figure, the female rats were injected daily with vehicle or 27 mg/kg PADK. Following each morning's injection, the rats were placed individually into the bright compartment and, after 10 s, the door was opened through which the rats typically entered immediately (3 min total time in apparatus/rat/day). Panel A: On the seventh injection day, latency time before entering the opened doorway was measured (pre-shock bars, mean±SEM), after which the door was closed to contain the animal in the dark compartment. A mild foot shock of 0.6 mA, 2 s duration, was then administered to the contained rat via the floor grid. Following the next day's injections, rats were again placed in the bright compartment and latency times measured after the door was opened (post-shock bars). […] Brains were removed after the behavior studies in order to assess cathepsin B levels.
In the 11-month Fischer rats, a model of MCI and early dementia, PADK improved passive avoidance memory. […]

[2] = system: human α-synuclein; experiment: Human α-synuclein clearance in A53T transgenic mice; type: in vivo, mouse; conditions: i.p., 18 mg/kg/day, p=0.01 vs vehicle-treated A53T mice
Procedure: FIG. 4. Enhancing lysosome efficiency with the cathepsin B modulator PADK leads to reductions of multiple types of proteinopathy-related accumulation events. […] Age-matched wild-type mice (wt) and 9-10-month mutant human APP mice, a model of early dementia, treated with or without PADK were assessed for the 4-kDa Δβ peptide, the active form of cathepsin B (act CB), and other proteins in hippocampal samples (C). Similar treatment groups used another APP mouse model at 20-22 months of age to measure clearance of APP carboxyterminal fragments APP-αCTF and APP-βCTF (D). Rat hippocampal slice cultures from the untreated control group (con) and slices treated with submicromolar Δβ42 (early tauopathy model) in the absence or presence of PADK (5 μM for 4 days) were assessed for phosphorylated tau (pTau) and other proteins (E). For a model of early α-synucleinopathy, human A53T α-synuclein transgenic mice, at 7 months old, were studied with or without PADK treatment and assessed for human α-synuclein (α-syn) in TX-100 extracts of hippocampus and for other proteins in hippocampal homogenates (F). Plotted data (±SEM) were compared to neighboring vehicle groups by unpaired t-tests: *p=0.02, **p<0.01, ***p<0.001. APPswind and APP-PS1 mice are described in Butler et al., (2011), the entire content of which is hereby incorporated herein by reference.
FIG. 6. […]

[3] = system: GluR1, GluR4, synaptophysin, and synapsin II; experiment: Synaptic marker immunoblot in hippocampal homogenates of A53T mice; type: in vivo, mouse; conditions: A53T mice injected daily for 11 days
Procedure: FIG. 7. The cathepsin B modulator PADK promotes synaptic integrity in the model of early α-synucleinopathy. The A53T transgenic and wildtype (wt) mice were injected daily with PADK or vehicle for 11 days. […] Mean GluR1 immunoreactivities±SEM are shown (B); post hoc test compared to vehicle-treated transgenics: *p<0.05.
Lysosomal enhancement also promoted protein clearance and synaptic protection in the Parkinson's disease transgenic mouse model expressing mutant A53T human α-synuclein (FIG. 4E). As in the other proteinopathy models, the reduction in human α-synuclein corresponded with active CatB levels that were increased 3-6 fold in brains of the PADK-treated A53T mice. […] The A53T mice were used at 7-8 months of age and behavioral studies confirmed the early α-synucleinopathy was pre-symptomatic, although a subtle change in anxiety behavior was detected (FIG. 5). PADK-mediated cathepsin B modulation was evident throughout the CNS, and the enhanced levels of the enzyme's active form corresponded with improved clearance of α-synuclein (FIG. 6) and recovery of several synaptic markers (FIG. 7A).

[4] = system: intracellular Aβ1-42; experiment: Intracellular Aβ1-42 in pyramidal neurons of APPswe/PS1ΔE9 transgenic mice; type: in vivo, mouse; conditions: PADK-treated APPswe/PS1ΔE9 transgenic mice; CA1
Description: FIG. 1. Lysosomal modulation increases the cathepsin B content of lysosomes and reduces intracellular Δβ1-42 in the APPswe/PS1ΔE9 transgenic mouse model of Alzheimer's disease. […] Without wishing to be bound by any scientific theory, the latter steps may involve processing/trafficking of active intermediate (intCB) and mature forms (matCB) from early/late endosomes to lysosomes in order to promote protein degradation (A). […] The increase in organellar cathepsin B enzyme (red) in PADK-treated APPswe/PS1ΔE9 transgenic mice (tg) was associated with a decrease in intracellular Δβ1-42 in the CA1 pyramidal neurons (C). Arrows denote co-localization in lysosomes, capturing intact Δβ1-42 before being degraded by cathepsin B. View-field widths: 12 μm. wt, vehicle-treated wild-type mice.
The lysosomal modulator Z-Phe-Ala-diazomethylketone (PADK) is administered to APPswe/PS1ΔE9 transgenic mice. Low-level PADK enhances cathepsin trafficking and maturation, thereby improving the clearance capacity of lysosomes (FIG. 1). It attenuates both PHF-tau and synaptic decline in the hippocampal slice model of protein accumulation (Bendiske and Bahr, 2003; Butler et al., 2005; Bahr, 2009). […] In PADK-treated transgenic mice, the increase in organellar cathepsin B was associated with a decrease in intracellular Aβ1-42 in pyramidal neurons (FIG. 1C).

C[C@H](NC(=O)[C@H](Cc1ccccc1)NC(=O)OCc1ccccc1)C(=O)C=[N+]=[N-] [PADK, N-carbobenzyloxy-L-phenylalanyl-L-alanyl-diazomethylketone]
passive avoidance behavior (latency post-shock) ([1]; day after 0.6 mA foot shock, vs vehicle, P=0.016): improve passive avoidance behavior | latency time before entering the opened doorway, pre-shock ([1]; seventh injection day, vs vehicle-treated aged rats): no difference | human α-synuclein levels [2]: decrease | levels of synaptic markers GluR1, GluR4, synaptophysin, and synapsin II [3]: improved levels | intracellular Aβ1-42 in pyramidal neurons [4]: decrease
